Data reported in publication PMC10480161, “Identification of potent and selective N-myristoyltransferase inhibitors of Plasmodium vivax liver stage hypnozoites and schizonts” (Nature Communications, 2023).
Where “and” joins values, the source holds several entries; their conditions need not be identical. Identical values can stand only once.

What was measured:
[1] = system: HepG2 cells; assay: HepG2 cytotoxicity assay (Live/Dead staining); details: replicates
Method: Therefore, we assessed cytotoxicity in the human hepatoma HepG2 cell line. We required a PvNMT to HsNMT SI > 20 for further screening. HepG2 cells were exposed to the compounds at concentrations ranging from 1 to 20 µM for […], and toxicity was assessed via live-dead staining.
The viability of the HepG2 cell line following exposure to the compounds was determined by a Live/Dead cell assay kit (Invitrogen). Briefly, cells were added to a 96-well plate at a concentration of 5000 cells per well, excluding the exterior wells. Cells were exposed to the compounds at different concentrations ranging from 1 to 20 µM. Cells were washed every 24 h and supplemented with fresh doses of compounds. At 72 h post-treatment, 1 µM calcein-AM and 1 µM ethidium homodimer were added to the wells and incubated for 10 min at 37 °C. After washing with PBS, the cells were visualized with fluorescent microscopy (Keyence BZ-X700).

[2] = system: P. vivax schizonts; assay: P. vivax liver stage assay, schizonts; format: cell-based, Plasmodium vivax; details: for Number of liverstage Schizonts per well: 20 µM, 8 dpi; for IC50: Plasmodium vivax, Hepatocyte, 120 h, primary human hepatocytes, treatment day 5 to 8 post-infection, isolates 2 and 3
Method: We next evaluated the candidate compounds against liver-stage P. vivax (Fig. 5). P. vivax sporozoites were obtained from three independent patient isolates and cultured in primary human hepatocytes from a single donor lot using a 384-well microculture system as described previously. Cells were infected and treated with NMTis at 20 µM beginning day 5 post-infection until day 8 when the infection rates were quantified by fluorescent microscopy.
Accordingly, we applied dose–response curves of all the tested NMTs on parasite isolates 2 and 3 over concentrations up to 20 µM (Fig. 5c, d, Source Data file). We observed similar kinetics for all inhibitors, with a gradual decrease in parasite load upon increasing the drug concentration. […] Nuclei were counted in each well using DAPI staining as a measure of toxicity (Supplementary Fig. 86, Supplementary Source data). We used the phosphatidylinositol 4-kinase inhibitor (PI4Ki), MMV390048, as a positive control for eliminating schizonts[37],[38].
(§1) Plasmodium vivax liver stage assays were performed as described previously. Cryopreserved primary human hepatocytes (Cat No. F00995-P) and hepatocyte culture medium (HCM) (InVitroGroTM CP Medium) were obtained from Bioreclamation IVT, Inc., (Baltimore, MD, USA). Briefly, we seeded 384-well plates with primary hepatocytes from a single donor lot at a density of 25,000 cells per well. We then infected the hepatocytes with 14,000 freshly hand-dissected sporozoites per well. Cells were exposed to the compounds at indicated concentrations from day 5 post-infection. We used Pi4K inhibitor MMV390048, at 20 µM, as a positive control to eliminate P. vivax liver schizonts. We then proceeded to feed cultures every day, replacing the compounds until day 8 post-infection. Cells were fixed with 4% PFA, permeabilized with 1% Triton X-100, blocked with 2% BSA, and stained with DAPI and PvUIS4 antibodies to detect schizonts and hypnozoites forms by confocal microscopy. For antibody dilutions, PvUIS4 (kind gift from Dr. Noah Sather, Seattle Children’s Research Institute) was diluted 1:250 and the secondary antibody was anti-mouse AlexaFluor-594 (Cat # A-11005; RRID: AB_2534073) diluted 1:1000. DAPI was diluted 1:2000. The images were processed, analyzed and outlier cells were removed using IMARIS (Bitplane Inc.) image analysis software.

[3] = system: P. vivax hypnozoites; assay: P. vivax liver stage assay, hypnozoites; format: cell-based, Plasmodium vivax; details: for Hypnozoites per well: Isolate 2, replicate wells (Figure 6d); for Number of liverstage hypnozoites per well: 8 dpi; for IC50: Hepatocyte, 120 h, primary human hepatocytes, treatment day 5 to 8 post-infection, isolate 2
Method: Finally, we evaluated the NMT-binding compounds against non-developing P. vivax hypnozoites. […] (Fig. 6A). […] We, therefore, evaluated the impact of all tested compounds on P. vivax hypnozoites using these two isolates.
as §1

[4] = molecular target: PvNMT (Plasmodium vivax, UniProt A5K1A2); assay: NMT activity assay (CPM detection of free CoA), PvNMT; details: for IC50: PvNMT IC50, mean of two or more determinations
PvNMT, sequence (A5K1A2 entry or part of it): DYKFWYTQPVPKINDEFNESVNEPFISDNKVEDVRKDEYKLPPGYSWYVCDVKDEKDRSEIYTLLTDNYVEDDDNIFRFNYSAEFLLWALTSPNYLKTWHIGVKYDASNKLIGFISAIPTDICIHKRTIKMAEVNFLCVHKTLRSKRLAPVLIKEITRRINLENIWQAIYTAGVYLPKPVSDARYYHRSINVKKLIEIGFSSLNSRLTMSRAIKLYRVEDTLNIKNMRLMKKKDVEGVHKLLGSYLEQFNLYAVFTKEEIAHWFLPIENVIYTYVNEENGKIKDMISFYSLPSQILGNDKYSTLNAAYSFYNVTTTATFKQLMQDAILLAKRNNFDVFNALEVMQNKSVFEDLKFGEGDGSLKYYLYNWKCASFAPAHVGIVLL

[5] = molecular target: T1, HsNMT1 (Homo sapiens, UniProt P30419); assay: NMT activity assay (CPM detection of free CoA), HsNMT
T1 sequence (P30419 1-496): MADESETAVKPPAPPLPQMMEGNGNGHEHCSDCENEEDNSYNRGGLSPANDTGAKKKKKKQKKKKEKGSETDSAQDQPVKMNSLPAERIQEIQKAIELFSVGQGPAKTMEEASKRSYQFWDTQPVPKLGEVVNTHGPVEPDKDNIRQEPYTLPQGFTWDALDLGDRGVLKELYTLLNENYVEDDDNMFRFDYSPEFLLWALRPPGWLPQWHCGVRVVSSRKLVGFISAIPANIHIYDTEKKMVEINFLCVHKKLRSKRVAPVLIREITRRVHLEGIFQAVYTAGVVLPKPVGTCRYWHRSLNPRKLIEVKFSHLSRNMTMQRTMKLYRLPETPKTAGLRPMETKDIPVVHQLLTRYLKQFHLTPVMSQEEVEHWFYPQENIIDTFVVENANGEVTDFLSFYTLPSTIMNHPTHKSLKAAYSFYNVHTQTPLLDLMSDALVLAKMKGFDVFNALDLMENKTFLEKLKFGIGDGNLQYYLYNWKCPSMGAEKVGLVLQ

[6] = isolate 1, technical replicates (Fig. 5b)
[7] = isolate 2, technical replicates (Fig. 5b)
[8] = isolate 3, technical replicates (Fig. 5b)
[9] = 20 µM, isolate 1, technical replicates (Fig. 6C)
[10] = 20 µM, isolate 2, technical replicates (Fig. 6C)
[11] = 20 µM, isolate 3, technical replicates (Fig. 6C)

Structure (SMILES)	Percentage of live HepG2 cells compared with diluent controls ([1]; 1 μM)	Percentage of live HepG2 cells compared with diluent controls ([1]; 2.5 μM)	Percentage of live HepG2 cells compared with diluent controls ([1]; 5 μM)	Percentage of live HepG2 cells compared with diluent controls ([1]; 10 μM)	Percentage of live HepG2 cells compared with diluent controls ([1]; 20 μM)	Number of liverstage Schizonts per well [2, 6]	Number of liverstage Schizonts per well [2, 7]	Number of liverstage Schizonts per well [2, 8]	Schizonts per well ([2]; Isolate 2, 1.25 uM)	Schizonts per well ([2]; Isolate 2, 5 uM)	Schizonts per well ([2]; Isolate 3, 1.25 uM)	Schizonts per well ([2]; Isolate 3, 2.5 uM)	Schizonts per well ([2]; Isolate 3, 5 uM)	IC50 [2] [µM]	schizonts (fold change to DMSO) mean diff ([2]; isolate 1, 20 µM)	schizonts (fold change to DMSO) mean diff ([2]; isolate 2, 20 µM)	schizonts (fold change to DMSO) mean diff ([2]; isolate 3, 20 µM)	Hypnozoites per well ([3]; 1.25 uM)	Hypnozoites per well ([3]; 2.5 uM)	Hypnozoites per well ([3]; 5 uM)	other results
Cc1nn(C)c(C)c1CCOc1cccnc1-c1ccnc(N2CCNCC2)c1 [Compound 12a]	103.266% and 104.098%	103.396% and 103.37%	103.812% and 94.3274%	93.0541% and 92.1966%	80.685% and 80.1653%	5 per well and 3 per well and 1 per well	1 per well and 0 per well and 3 per well	2 per well and 6 per well	12 per well and 16 per well and 11 per well	8 per well and 10 per well and 7 per well	12 per well and 15 per well	12 per well and 9 per well	7 per well and 5 per well	3 to 3.8	0.850	0.9245	0.7273	12 and 10 and 8	8 and 7 and 13	6 and 8 and 7	Hypnozoites per well ([3]; 10 uM): 1 and 3 and 0; Number of liverstage hypnozoites per well [3, 9]: 8 per well (2×) and 0 per well; Number of liverstage hypnozoites per well [3, 10]: 0 per well (2×) and 3 per well; Number of liverstage hypnozoites per well [3, 11]: 0 per well; Hypnozoites per well ([3]; 20 uM): 0 (2×) and 3; IC50 ([3]; Plasmodium vivax): 5.7 µM; hypnozoites (fold change to DMSO) mean diff ([3]; isolate 1, 20 µM): 0.754; hypnozoites (fold change to DMSO) mean diff ([3]; isolate 2, 20 µM): 0.897; IC50 [4]: 0.0368 µM; SI ([4]; enzyme selectivity, HsNMT IC50/PvNMT IC50): 146.7; IC50 [5]: 5.4 µM
c1cncc(CCOc2ccc3ccccc3c2-c2ccnc(N3CCNCC3)c2)c1 [Compound 30c]	102.591% and 103.526%	103.812% and 93.9636%	93.7037% and 93.0801%	92.5344% and 91.9887%	79.2818% and 86.3846%	0 per well (2×) and 6 per well	3 per well and 4 per well and 6 per well	1 per well and 3 per well	12 per well and 14 per well and 13 per well	7 per well and 10 per well and 9 per well	13 per well and 10 per well	12 per well and 9 per well	7 per well and 10 per well	2.7 to 4.9	0.900	0.7547	0.8636	8 and 15 and 7	5 and 6 and 12	0 and 5 and 13	Schizonts per well ([2]; Isolate 2, 2.5 uM): 9 per well and 14 per well and 11 per well; Schizonts per well ([2]; Isolate 2, 10 uM): 4 per well and 5 per well and 6 per well; Schizonts per well ([2]; Isolate 2, 20 uM (Fig. 5c-d)): 3 per well and 4 per well and 6 per well; Hypnozoites per well ([3]; 10 uM): 5 and 0 and 4; Number of liverstage hypnozoites per well [3, 9]: 0 per well and 1 per well and 4 per well; Number of liverstage hypnozoites per well [3, 10]: 4 per well (2×) and 1 per well; Number of liverstage hypnozoites per well [3, 11]: 0 per well; Hypnozoites per well ([3]; 20 uM): 4 (2×) and 1; IC50 ([3]; Plasmodium vivax): 3.8 µM; inhibition at 20 µM ([3]; Plasmodium vivax, 20 µM): > 75%; hypnozoites (fold change to DMSO) mean diff ([3]; isolate 1, 20 µM): 0.939; hypnozoites (fold change to DMSO) mean diff ([3]; isolate 2, 20 µM): 0.690; IC50 [4]: 0.248 µM
